The values that follow come from patent US20240024488A1, “COMPOUNDS AND USES THEREOF” (Foghorn Therapeutics Inc., priority 2020, published 2024).

One test has as its target T1, HiBit-BRM fusion protein (Homo sapiens, UniProt P51531).
T1 construct: expressed in transfected cells
Kind of test: HiBiT-BRM cell-based degradation assay (Nano-Glo HiBiT Lytic Detection, 24 h). To be noted: HeLa cell line expressing HiBiT-BRM; for DC50: read-out: BRM HiBit Degradation IC50. In a few lines:
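HeLa cells stably expressing HiBiT-BRM were dosed with compounds (10-point 3-fold dilutions, 30 μM final top dose, duplicate) for 24 h. HiBiT signal was read by lytic LgBiT complementation luminescence. Percent degradation was normalised to DMSO (high control) and 2 μM of a reference BRM/BRG1 degrader (low control).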
A general note: HiBiT is a short tag that completes a luciferase, so light tracks the accessible tagged protein.

For test [1], the target named is T2, HiBit-BRG1 fusion protein (Homo sapiens, UniProt P51532).
T2 construct: expressed in transfected cells
T2 sequence (P51532 whole entry, the tested form may be a part): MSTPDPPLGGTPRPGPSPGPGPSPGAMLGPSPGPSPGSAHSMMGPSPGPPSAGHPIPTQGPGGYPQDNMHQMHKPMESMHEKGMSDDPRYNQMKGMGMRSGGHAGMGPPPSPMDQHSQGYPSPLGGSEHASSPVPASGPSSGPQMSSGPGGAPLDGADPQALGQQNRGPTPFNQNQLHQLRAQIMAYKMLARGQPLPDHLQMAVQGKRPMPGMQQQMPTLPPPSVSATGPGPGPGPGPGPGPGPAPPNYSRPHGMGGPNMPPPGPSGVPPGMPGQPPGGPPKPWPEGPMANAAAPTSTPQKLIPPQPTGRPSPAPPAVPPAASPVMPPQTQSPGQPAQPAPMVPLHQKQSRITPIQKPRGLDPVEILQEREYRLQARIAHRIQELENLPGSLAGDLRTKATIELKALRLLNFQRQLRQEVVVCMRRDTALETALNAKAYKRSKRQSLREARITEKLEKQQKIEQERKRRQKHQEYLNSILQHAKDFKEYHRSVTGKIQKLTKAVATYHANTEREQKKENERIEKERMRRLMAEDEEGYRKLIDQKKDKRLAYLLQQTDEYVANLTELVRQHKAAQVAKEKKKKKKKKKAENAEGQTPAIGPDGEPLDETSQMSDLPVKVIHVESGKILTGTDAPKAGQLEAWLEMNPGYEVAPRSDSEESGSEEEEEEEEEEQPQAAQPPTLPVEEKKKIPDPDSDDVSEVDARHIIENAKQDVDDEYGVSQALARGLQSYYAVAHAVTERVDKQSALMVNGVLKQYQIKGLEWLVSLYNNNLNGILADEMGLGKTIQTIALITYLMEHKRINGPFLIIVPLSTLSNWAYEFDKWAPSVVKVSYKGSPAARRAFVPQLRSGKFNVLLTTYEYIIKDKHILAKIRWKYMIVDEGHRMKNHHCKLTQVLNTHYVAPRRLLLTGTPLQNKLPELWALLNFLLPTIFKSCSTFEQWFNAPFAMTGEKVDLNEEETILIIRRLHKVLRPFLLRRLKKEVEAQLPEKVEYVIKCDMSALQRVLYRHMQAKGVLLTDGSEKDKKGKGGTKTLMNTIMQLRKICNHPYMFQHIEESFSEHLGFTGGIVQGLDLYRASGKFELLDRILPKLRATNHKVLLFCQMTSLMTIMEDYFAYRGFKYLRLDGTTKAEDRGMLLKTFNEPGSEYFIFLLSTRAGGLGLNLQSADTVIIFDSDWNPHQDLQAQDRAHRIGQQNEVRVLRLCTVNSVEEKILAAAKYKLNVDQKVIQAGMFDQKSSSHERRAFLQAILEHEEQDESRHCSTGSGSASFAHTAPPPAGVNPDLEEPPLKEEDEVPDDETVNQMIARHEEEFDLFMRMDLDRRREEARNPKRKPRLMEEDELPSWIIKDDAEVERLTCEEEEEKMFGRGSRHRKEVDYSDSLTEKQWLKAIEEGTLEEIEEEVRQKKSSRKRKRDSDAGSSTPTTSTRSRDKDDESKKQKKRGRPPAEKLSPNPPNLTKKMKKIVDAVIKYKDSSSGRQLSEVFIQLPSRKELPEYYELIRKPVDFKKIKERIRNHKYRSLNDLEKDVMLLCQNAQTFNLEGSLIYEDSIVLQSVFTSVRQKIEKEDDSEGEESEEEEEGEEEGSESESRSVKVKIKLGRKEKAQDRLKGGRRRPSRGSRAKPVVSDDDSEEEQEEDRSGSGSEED
In words: HiBiT-BRG1 cell-based degradation assay (Nano-Glo HiBiT Lytic Detection, 24 h). To be noted: HeLa cell line expressing HiBit-BRG1 and LgBit; for Dmax: read-out: BRG1 HiBit Degradation Maximum (%); for DC50: read-out: BRMG1 HiBit Degradation IC50. The method, boiled down: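 Seed 5000 HeLa HiBit-BRG1/LgBit cells per well; treat 24 h; equilibrate 15 min at room temperature; add Nano-Glo HiBiT lytic reagent, shake 10 min, read luminescence. Percent degradation is scaled between DMSO and 2 μM reference degrader wells.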

Each structure is given as a SMILES string.

T1 sequence (P51531 whole entry, the tested form may be a part): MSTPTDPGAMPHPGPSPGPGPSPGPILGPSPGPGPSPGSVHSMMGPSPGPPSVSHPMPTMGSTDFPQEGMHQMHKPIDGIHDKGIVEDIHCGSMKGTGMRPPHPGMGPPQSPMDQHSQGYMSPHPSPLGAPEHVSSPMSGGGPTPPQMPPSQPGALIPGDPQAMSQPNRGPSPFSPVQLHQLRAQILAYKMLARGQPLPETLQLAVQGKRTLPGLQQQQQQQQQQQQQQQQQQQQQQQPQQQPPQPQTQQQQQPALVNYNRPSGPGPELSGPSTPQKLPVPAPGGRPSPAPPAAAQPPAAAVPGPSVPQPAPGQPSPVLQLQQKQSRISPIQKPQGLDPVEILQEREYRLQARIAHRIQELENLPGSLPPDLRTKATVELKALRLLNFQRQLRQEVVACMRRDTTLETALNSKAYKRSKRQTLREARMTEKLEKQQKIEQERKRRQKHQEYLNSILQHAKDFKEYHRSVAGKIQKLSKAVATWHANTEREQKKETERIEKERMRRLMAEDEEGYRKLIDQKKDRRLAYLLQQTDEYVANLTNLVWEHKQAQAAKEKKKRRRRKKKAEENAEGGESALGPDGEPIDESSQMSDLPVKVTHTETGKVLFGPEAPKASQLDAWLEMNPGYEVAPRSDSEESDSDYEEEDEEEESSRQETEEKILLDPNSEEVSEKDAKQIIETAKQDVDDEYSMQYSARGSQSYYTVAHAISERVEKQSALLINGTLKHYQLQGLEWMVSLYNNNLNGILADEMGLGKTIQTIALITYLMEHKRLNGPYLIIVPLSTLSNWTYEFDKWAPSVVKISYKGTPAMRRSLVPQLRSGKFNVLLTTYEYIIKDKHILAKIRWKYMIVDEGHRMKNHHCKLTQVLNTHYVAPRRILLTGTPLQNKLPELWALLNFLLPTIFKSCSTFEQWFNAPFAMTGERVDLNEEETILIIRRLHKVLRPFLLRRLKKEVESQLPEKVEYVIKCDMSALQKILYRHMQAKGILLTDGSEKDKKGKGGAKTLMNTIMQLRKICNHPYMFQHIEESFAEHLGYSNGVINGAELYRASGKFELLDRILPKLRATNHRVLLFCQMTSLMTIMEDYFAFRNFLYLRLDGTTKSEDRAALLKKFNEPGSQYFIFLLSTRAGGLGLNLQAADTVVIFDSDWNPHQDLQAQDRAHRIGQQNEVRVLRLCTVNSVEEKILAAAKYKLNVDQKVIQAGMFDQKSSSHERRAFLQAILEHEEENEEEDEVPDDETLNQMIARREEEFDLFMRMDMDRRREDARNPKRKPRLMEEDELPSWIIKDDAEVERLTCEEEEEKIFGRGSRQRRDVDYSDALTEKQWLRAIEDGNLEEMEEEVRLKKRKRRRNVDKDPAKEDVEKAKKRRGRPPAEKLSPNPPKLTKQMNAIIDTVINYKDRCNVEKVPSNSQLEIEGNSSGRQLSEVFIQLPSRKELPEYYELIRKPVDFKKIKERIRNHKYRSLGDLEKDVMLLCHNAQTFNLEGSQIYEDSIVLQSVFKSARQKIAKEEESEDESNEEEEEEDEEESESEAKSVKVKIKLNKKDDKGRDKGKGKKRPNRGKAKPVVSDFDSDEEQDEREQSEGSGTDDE

Regarding `Cc1ncsc1-c1ccc([C@H](C)NC(=O)[C@@H]2C[C@@H](O)CN2C(=O)[C@@H](c2cc(N3CCC(CN[C@H]4CCc5[nH]c6nnc(-c7ccccc7O)cc6c5C4)CC3)no2)C(C)C)cc1` [Compound 159, (2S,4R)-4-hydroxy-1-((R)-2-(3-(4-((((S)-3-(2-hydroxyphenyl)-6,7,8,9-tetrahydro-5H-pyridazino[3,4-b]indol-6-yl)amino)methyl)piperidin-1-yl)isoxazol-5-yl)-3-methylbutanoyl)-N-((S)-1-(4-(4-methylthiazol-5-yl)phenyl)ethyl)pyrrolidine-2-carboxamide], at HiBit-BRM fusion protein, the “BRM HiBit Degradation Maximum (%)” value was “A (“A” indicates maximum degradation ≥ 75%)” and the DC50 was > 10 nM. Further, in test [1], the Dmax was > 75% and the DC50 is > 100 nM.
Regarding `Cc1ncsc1-c1ccc([C@H](C)NC(=O)[C@@H]2C[C@@H](O)CN2C(=O)[C@@H](c2cc(OCCCN3CC(c4cc5cc(-c6ccccc6O)nnc5[nH]4)C3)no2)C(C)C)cc1` (single isomer, unassigned) [Compound 237], on HiBit-BRM fusion protein, the “BRM HiBit Degradation Maximum (%)” value is recorded as “C (“C” indicates maximum degradation < 50%)”. Also, the Dmax in test [1] was < 50%.
Regarding `Cc1ncsc1-c1ccc([C@H](C)NC(=O)[C@@H]2C[C@@H](O)CN2C(=O)[C@@H](c2cc(N3CCN(C(=O)C(=O)N4CC(c5cc6cc(-c7ccccc7O)nnc6[nH]5)C4)CC3)no2)C(C)C)cc1` (single isomer, unassigned) [Compound 234], at HiBit-BRM fusion protein, the “BRM HiBit Degradation Maximum (%)” value is “A (“A” indicates maximum degradation ≥ 75%)” and the DC50 is > 100 nM. The Dmax in test [1] is < 50%.
For the molecule `Cc1ncsc1-c1ccc([C@H](C)NC(=O)[C@@H]2C[C@@H](O)CN2C(=O)[C@@H](c2cc(C3CCN(C(=O)CN4CC(c5cc6cc(-c7ccccc7O)nnc6[nH]5)C4)CC3)no2)C(C)C)cc1` (single isomer, unassigned) [Compound 179], on HiBit-BRM fusion protein, the “BRM HiBit Degradation Maximum (%)” value is recorded as “A (“A” indicates maximum degradation ≥ 75%)” and the DC50 is > 100 nM. Also, the Dmax in test [1] is < 50%.
As to `Cc1ncsc1-c1ccc([C@H](C)NC(=O)[C@@H]2C[C@@H](O)CN2C(=O)[C@@H](c2cc(OCCN3CC(c4[nH]c5nnc(-c6ccccc6O)cc5c4Cl)C3)no2)C(C)C)cc1` (racemic) [Compound 238, (2S,4R)-1-[(2R)-2-[3-(2-{3-[5-chloro-3-(2-hydroxyphenyl)-7H-pyrrolo[2,3-c]pyridazin-6-yl]azetidin-1-yl}ethoxy)-1,2-oxazol-5-yl]-3-methylbutanoyl]-4-hydroxy-N-[(1S)-1-[4-(4-methyl-1,3-thiazol-5-yl)phenyl]ethyl]pyrrolidine-2-carboxamide], on HiBit-BRM fusion protein, the “BRM HiBit Degradation Maximum (%)” value was “A (“A” indicates maximum degradation ≥ 75%)” and the DC50 was > 10 nM. In test [1], the Dmax is < 50%.
Take `Cc1ncsc1-c1ccc([C@H](C)NC(=O)[C@@H]2C[C@@H](O)CN2C(=O)[C@@H](c2cc(OCCN3CCc4[nH]c5nnc(-c6ccccc6O)cc5c4C3)no2)C(C)C)cc1` (racemic) [Compound 303, (2S,4R)-4-hydroxy-1-((R)-2-(3-(2-(3-(2-hydroxyphenyl)-5,7,8,9-tetrahydro-6H-pyrido[3′,4′:4,5]pyrrolo[2,3-c]pyridazin-6-yl)ethoxy)isoxazol-5-yl)-3-methylbutanoyl)-N-((S)-1-(4-(4-methylthiazol-5-yl)phenyl)ethyl)pyrrolidine-2-carboxamide]: the “BRM HiBit Degradation Maximum (%)” value on HiBit-BRM fusion protein was “C (“C” indicates maximum degradation < 50%)”. Besides, in test [1], the Dmax is < 50%.
Regarding `Cc1ncsc1-c1ccc([C@H](C)NC(=O)[C@@H]2C[C@@H](O)CN2C(=O)[C@@H](c2cc(OCCN3CC(C)(c4cc5cc(-c6ccccc6O)nnc5[nH]4)C3)no2)C(C)C)cc1` (racemic) [Compound 275, (2S,4R)-4-hydroxy-1-((R)-2-(3-(2-(3-(3-(2-hydroxyphenyl)-7H-pyrrolo[2,3-c]pyridazin-6-yl)-3-methylazetidin-1-yl)ethoxy)isoxazol-5-yl)-3-methylbutanoyl)-N-((S)-1-(4-(4-methylthiazol-5-yl)phenyl)ethyl)pyrrolidine-2-carboxamide], at HiBit-BRM fusion protein, the “BRM HiBit Degradation Maximum (%)” value was “A (“A” indicates maximum degradation ≥ 75%)” and the DC50 was > 10 nM. The Dmax in test [1] is < 50%.
Regarding `Cc1ncsc1-c1ccc([C@H](C)NC(=O)[C@@H]2C[C@@H](O)CN2C(=O)[C@@H](c2cc(OCCN(C)C34CC(c5cc6cc(-c7ccccc7O)nnc6[nH]5)(C3)C4)no2)C(C)C)cc1` (racemic) [Compound 302, (2S,4R)-4-hydroxy-1-((R)-2-(3-(2-((3-(3-(2-hydroxyphenyl)-7H-pyrrolo[2,3-c]pyridazin-6-yl)bicyclo[1.1.1]pentan-1-yl)(methyl)amino)ethoxy)isoxazol-5-yl)-3-methylbutanoyl)-N-((S)-1-(4-(4-methylthiazol-5-yl)phenyl)ethyl)pyrrolidine-2-carboxamide], at HiBit-BRM fusion protein, the “BRM HiBit Degradation Maximum (%)” value is “A (“A” indicates maximum degradation ≥ 75%)” and the DC50 is > 10 nM. For the same molecule, in test [1], the Dmax is > 75% and the DC50 was > 10 nM.
In the case of `Cc1ncsc1-c1ccc([C@H](C)NC(=O)[C@@H]2C[C@@H](O)CN2C(=O)[C@@H](c2cc(OCC(=O)N3CC(c4cc5cc(-c6ccccc6O)nnc5[nH]4)C3)no2)C(C)C)cc1` (racemic) [Compound 305, (2S,4R)-4-hydroxy-1-((R)-2-(3-(2-(3-(3-(2-hydroxyphenyl)-7H-pyrrolo[2,3-c]pyridazin-6-yl)azetidin-1-yl)-2-oxoethoxy)isoxazol-5-yl)-3-methylbutanoyl)-N-((S)-1-(4-(4-methylthiazol-5-yl)phenyl)ethyl)pyrrolidine-2-carboxamide], on HiBit-BRM fusion protein, the “BRM HiBit Degradation Maximum (%)” value is “A (“A” indicates maximum degradation ≥ 75%)” and the DC50 was > 1000 nM. For the same molecule, the Dmax in test [1] is < 50%.
For `Cc1ncsc1-c1ccc([C@H](C)NC(=O)[C@@H]2C[C@@H](O)CN2C(=O)[C@@H](c2cc(OCCN3CCC(F)(c4cc5cc(-c6ccccc6O)nnc5[nH]4)CC3)no2)C(C)C)cc1` (racemic) [Compound 285, (2S,4R)-1-((R)-2-(3-(2-(4-fluoro-4-(3-(2-hydroxyphenyl)-7H-pyrrolo[2,3-c]pyridazin-6-yl)piperidin-1-yl)ethoxy)isoxazol-5-yl)-3-methylbutanoyl)-4-hydroxy-N-((S)-1-(4-(4-methylthiazol-5-yl)phenyl)ethyl)pyrrolidine-2-carboxamide], at HiBit-BRM fusion protein, the “BRM HiBit Degradation Maximum (%)” value was “A (“A” indicates maximum degradation ≥ 75%)” and the DC50 is > 100 nM. In test [1], the Dmax is > 50% and the DC50 was > 100 nM.
With `Cc1ncsc1-c1ccc([C@H](C)NC(=O)C2C[C@@H](O)CN2C(=O)[C@@H](c2cc(OCCN3C[C@H]4C[C@@H](c5[nH]c6nnc(-c7ccccc7O)cc6c5C)C[C@H]4C3)no2)C(C)C)cc1` (single isomer, unassigned) [Compound 108], at HiBit-BRM fusion protein, the “BRM HiBit Degradation Maximum (%)” value was “A (“A” indicates maximum degradation ≥ 75%)” and the DC50 is < 10 nM. Besides, in test [1], the Dmax was > 75% and the DC50 was > 10 nM.
For the molecule `Cc1ncsc1-c1ccc([C@H](C)NC(=O)[C@@H]2C[C@@H](O)CN2C(=O)[C@@H](c2cc(OCCN3CC(c4c(C)[nH]c5nnc(-c6ccccc6O)cc45)C3)no2)C(C)C)cc1` (racemic) [Compound 254, (2S,4R)-4-hydroxy-1-((R)-2-(3-(2-(3-(3-(2-hydroxyphenyl)-6-methyl-7H-pyrrolo[2,3-c]pyridazin-5-yl)azetidin-1-yl)ethoxy)isoxazol-5-yl)-3-methylbutanoyl)-N-((S)-1-(4-(4-methylthiazol-5-yl)phenyl)ethyl)pyrrolidine-2-carboxamide], on HiBit-BRM fusion protein, the “BRM HiBit Degradation Maximum (%)” value was “A (“A” indicates maximum degradation ≥ 75%)” and the DC50 is > 10 nM. Also, in test [1], the Dmax was < 50%.
The matching figures for `Cc1ncsc1-c1ccc([C@H](C)NC(=O)[C@@H]2C[C@@H](O)CN2C(=O)[C@@H](c2cc(N3CCN(C(=O)[C@@H]4CCc5[nH]c6nnc(-c7ccccc7O)cc6c5C4)CC3)no2)C(C)C)cc1` (single isomer, unassigned) [Compound 192]: “A (“A” indicates maximum degradation ≥ 75%)”, > 10 nM and < 50%.
With `O=C1CCC(N2C(=O)c3ccc(NCCCCCCCCC(=O)N4CC(c5cc6cc(-c7ccccc7O)nnc6[nH]5)C4)cc3C2=O)C(=O)N1` (stereo not drawn) [Compound 9, 2-(2,6-dioxopiperidin-3-yl)-5-((9-(3-(3-(2-hydroxyphenyl)-7H-pyrrolo[2,3-c]pyridazin-6-yl)azetidin-1-yl)-9-oxononyl)amino) isoindoline-1,3-dione], at HiBit-BRM fusion protein, the “BRM HiBit Degradation Maximum (%)” value is reported as “B (“B” indicates maximum degradation ≥ 50%)” and the DC50 was > 1000 nM. For the same molecule, in test [1], the Dmax was < 50%.
Regarding `Cc1ncsc1-c1ccc([C@H](C)NC(=O)[C@@H]2C[C@@H](O)CN2C(=O)[C@@H](c2cc(N3CCC(CN4CC5(Cc6cc(-c7ccccc7O)nnc6N5)C4)CC3)no2)C(C)C)cc1` (racemic) [Compound 96, (2S,4R)-4-hydroxy-1-((R)-2-(3-(4-((3′-(2-hydroxyphenyl)-5′,7′-dihydrospiro[azetidine-3,6′-pyrrolo[2,3-c]pyridazin]-1-yl)methyl)piperidin-1-yl)isoxazol-5-yl)-3-methylbutanoyl)-N-((S)-1-(4-(4-methylthiazol-5-yl)phenyl)ethyl)pyrrolidine-2-carboxamide], on HiBit-BRM fusion protein, the “BRM HiBit Degradation Maximum (%)” value was “A (“A” indicates maximum degradation ≥ 75%)” and the DC50 is > 10 nM. In test [1], the Dmax was > 50% and the DC50 was > 100 nM.
